Tested on: miR-21
Assay: high throughput screen for compounds that modulate miR-21
Format: cell-based
Details: Homo sapiens; Tables 4-12
Text: This example describes a high throughput screening assay to identify small organic molecules that perturb the miRNA process. These active small molecules can be used as novel chemical tools to better understand miRNA functions and the molecular mechanisms of miRNA biogenesis. Moreover, miRNA inhibitors can be potentially developed into new therapeutics, including anticancer and antiviral agents. The high throughput assay is composed of a two-stage screening protocol, including of a primary screen to identify potential lead compounds from small molecule collections, and a secondary screen to evaluate and characterize the primary actives and to obtain a detailed structure-activity relationship (SAR).
Primary miR-21 Assay. The primary miR-21 FLuc reporter assay is carried out with HeLa cells expressing the Luc-miR-21 reporter using a 48-hour incubation time. Active compounds that increase the luciferase response are identified based upon inhibition of miR-21.
SAR. The concentration-response data for the entire high throughput screen is plotted and modeled by a four parameter logistic fit and SAR analysis is performed according to conventional approaches (Iglese, et al. (2006) Proc. Natl. Acad. Sci. USA 130:11473-8). In brief, Class 1.1 and 1.2 are full curves containing upper and lower asymptotes with efficacy ≧80% and <80%, respectively. […]

Row | SMILES | AC50 [µM]
1 | C/C(=N\NC(=O)c1cccs1)c1ccncc1 | 7.36
2 | COc1ccc2c(c1)CC(C)C/C2=N\NC(=O)c1ccco1 (centres unmarked) | 16.5

From patent US20100196357A1, “Microrna modulators and method for identifying and using the same” (priority 2008, published 2010)
